# Measured values published in patent US20040266834A1, “Thiazolidinediones alone or in cabination with other therapeutic agents for cancer therapy” (priority 1999, published 2004).
# Structures can show the parent of a compound that is named as a salt. Starred links: 1 amine or outer side, 2 acyl side, 3 side chain; linkers in the order of their positions; H or OH if unused. Positions of bridges follow the written chain, without caps; N, C: chain ends. Non-standard residues stand in square brackets, D forms with d. Residues, ends and D or L forms follow the SMILES beside them. Chains are numbered I, II in the order given. Actinocin(9to1) = Cc1c2oc3c(C)ccc(C(=O)[*:1])c3nc-2c(C(=O)[*:2])c(N)c1=O; NMeV = CN[C@H](C(=O)O)C(C)C; Sar = CNCC(=O)O
# Key:
# [1] = system: p21 mRNA; experiment: Ribonuclease protection assay, cell cycle regulator mRNA; format: cell-based, human; settings: single treatment 1 μM, 24 hr, normalized to GAPDH
# Protocol: To determine whether troglitazone effected any of the cell cycle regulator genes, ribonuclease protection assay (RPA) was performed measuring mRNAs encoding p130, Rb, p107, p53, p57, p27, p21, p19, p18, p16, p14/15 and the housekeeping gene products L32 and GAPDH. […] Cells were lysed and total RNA was isolated. […] Ribonuclease protection assay was performed using kit according to manufacturer instructions (PharMingen, San Diego, Calif.). Conditions that were optimized included using 20 μg of total RNA from Hs578T cells and a 1:200 dilution of RNAse A/T (200 units/ml RNase A and 10,000 units/ml RNase T). […] Results are reported as the ratio of […] signal. All experiments were done in triplicate from different RNA preparations.
# [2] = system: CaOV3 cells; experiment: DNA content, ovarian tumor cells CaOV3; format: cell-based, human; settings: 3 days; for inhibition at 10 µM: Homo sapiens, Caov-3, 72 h, read-out: inhibition of cell proliferation
# Protocol: (§1) […]. At the end of 3 days DNA content was determined as a measure of cell proliferation.
# (§2) Concentration of cellular DNA was determined using Hoechst dye H 33258 and a Hoefer DyNA Quant fluorometer according to manufacturer's instructions. Results are expressed as μg DNA/well. All experiments were done in triplicate.
# [3] = system: Saos-2 cells; experiment: DNA content (Hoechst H 33258) as measure of cell proliferation, Saos-2; format: cell-based, human
# Protocol: Cells exposed to a single treatment of troglitazone, 5-fluorouracil, and/or cis-platinum for 3 days. […] The phrase “cell proliferation” is used herein interchangeably with “cell growth.” Concentration of cellular DNA was determined using Hoechst dye H 33258 and a Hoefer DyNA Quant fluorometer according to manufacturer's instructions. Results are expressed as μg DNA/well. All experiments were done in triplicate.
# [4] = system: Saos-2 cells; experiment: [3H]thymidine incorporation, Saos-2; format: cell-based, human
# Protocol: Saos-2 cells (10,000/well) were seeded into wells of 12-well plates and grown for 4 days until near confluent. […]. [Methyl-^3H]thymidine (1 μCi) and thymidine (3 μM) were then added to each well, and the incubation was continued for another 4 h. Cells were rinsed with ice-cold PBS twice and were treated with ice-cold 10% TCA. The cells were then rinsed twice with PBS and solubilized in 400 μl of solution composed of 0.03% SDS in 0.3 N NaOH. The extracts were neutralized with HCl, and radioactivity incorporated into the cells was quantified by liquid scintillation spectrometry.
# [5] = system: PPARγ in UMCR 3 cells; experiment: PPRE/luciferase reporter, UMCR 3; format: cell-based, human; settings: 10 μM, 24-hour treatment
# Protocol: A tandem PPRE luciferase expression plasmid was constructed using three copies of a consensus PPRE 5′ to the luciferase gene. Cells were transfected using the calcium phosphate method of transfection. 10 μg of PPRE/luciferase reporter plasmid was transfected into URMC 3, 6, and 7 cells. A CMV-CAT reporter plasmid was cotransfected (0.5 μg) with PPRE/luciferase as an internal control for transfection efficiency. CAT activity was measured by ELISA as described by Boehringer-Mannheim. […] Cells lysates were prepared and luciferase activity was determined using an AutoLumat luminometer.
# [6] = system: Saos-2 cells; experiment: Lactate dehydrogenase (LDH) activity in media, Saos-2; format: cell-based, human
# Protocol: Saos-2 cells were purchased from ATCC (Rockville, Md.) and cultured in 10% fetal bovine serum, penicillin/streptomycin, and DMEM media. Cells exposed to a single treatment of troglitazone, 5-fluorouracil, and/or cis-platinum for 3 days. At the end of 3 days media was tested for lactate dehydrogenase (LDH) activity as a measure of cell toxicity and DNA content was determined as a measure of cell proliferation. The phrase “cell proliferation” is used herein interchangeably with “cell growth.”
# Media from treated cells was assayed for LDH activity with a colorimetric dye-oxidation method which has been previously described (11). Briefly, the assay mix including lactate, NAD, INT dye and diaphorase in PBS was added to media from the cells and incubated 30 minutes. Red color development is indicative of INT […] to formazan product, giving an indication of LDH activity when measured at 490 nm.
# [7] = system: 222 cells; experiment: DNA content, ovarian tumor cells 222; format: cell-based; settings: Homo sapiens, 72 h, 3 days, read-out: inhibition of growth
# Protocol: as §1, §2
# [8] = system: PA-1 cells; experiment: DNA content, ovarian tumor cells PA-1; format: cell-based; settings: Homo sapiens, 72 h, 3 days, read-out: inhibition of cell proliferation
# Protocol: as §1, §2
# [9] = system: three renal cell carcinoma cell lines; experiment: DNA content, three renal cell carcinoma cell lines taken together; format: cell-based, human; settings: 10 μM; UMCR 3, 6 and 7
# Protocol: Human renal tumor cells (URMC 3, 6, 7) were cultured in 5% fetal bovine serum, penicillin/streptomycin, and alpha-MEM media. […] At the end of 3 days DNA content was determined as a measure of cell proliferation.
# as §2
# [10] = cited from earlier work
# [11] = system: multiple myeloma; settings: oral administration; cited from earlier work
# [12] = system: human ovarian 2774 cells; experiment: DNA content, ovarian 2774 cells, combinatorial therapy; format: cell-based; settings: taxol 1 ng/ml, cis-platin 100 ng/ml, troglitazone 5 or 10 μM, alone or combined
# Protocol: as §1, §2
# [13] = humans; cited from earlier work
# [14] = system: HCT 116 cells; settings: cited from earlier work
# [15] = system: HCT 15 cells; settings: cited from earlier work
compound,measurement,setting,value
"Cc1c(C)c2c(c(C)c1O)CCC(C)(COc1ccc(CC3SC(=O)NC3=O)cc1)O2 (racemic) [troglitazone, ±5-[[4-[(3,4-dihydro-6-hydroxy-2,5,7,8-tetramethyl-2H-1-benzopyran-2-yl)methoxy]phenyl]methyl]-2,4-thiazolidinedione]",increase in p21 mRNA levels,[1],2.6 fold
same,inhibition of cell proliferation,[2]; 10 μM,no inhibitory activity
same,IC50,"[3]; Homo sapiens, 72 h, Saos-2 cells, 3 days after a single treatment, read-out: IC50 (DNA content per well)",1 to 10 µg/mL
same,"ability to inhibit cell proliferation in combinatorial therapy (5-FU, doxorubicin)",[3]; compared with the other thiazolidinediones,superior to pioglitazone and BRL49653
same,decrease in 3H-thymidine incorporation,"[4]; 10 μg/ml, 24 h exposure",~45%
same,inhibition at 5 µg/mL,"[4]; Homo sapiens, SAOS-2, read-out: inhibition of 3H-uridine uptake, 5 μg/ml, 18 hours",16%
same,inhibition at 10 µg/mL,"[4]; Homo sapiens, SAOS-2, read-out: inhibition of 3H-uridine uptake, 10 μg/ml, 18 hours",43%
same,stimulation of PPRE/luciferase transcription,[5],3 fold
same,LDH levels in the media as compared to controls,"[6]; any concentration used, 3 days of treatment",not altered
same,lethality to Saos-2 cells (LDH activity),"[6]; up to 30 μg/ml, 3 days",not lethal
same,inhibition at 10 µM,[7],50%
same,inhibition at 10 µM,[8],60 to 70%
CC1=C(/C=C/C(C)=C\C=C\C(C)=C\C(=O)O)C(C)(C)CCC1 [9-cis-retinoic acid],growth inhibitory activity (FIGS. 13-15),[9],little on no growth inhibitory activity
"Cc1c2oc3c(C)ccc(C(=O)N[C@@H]4C(=O)N[C@H](C(C)C)C(=O)N5CCC[C@H]5C(=O)N(C)CC(=O)N(C)[C@@H](C(C)C)C(=O)O[C@@H]4C)c3nc-2c(C(=O)N[C@@H]2C(=O)N[C@H](C(C)C)C(=O)N3CCC[C@H]3C(=O)N(C)CC(=O)N(C)[C@@H](C(C)C)C(=O)O[C@@H]2C)c(N)c1=O [Actinomycin D] (I: T[dV]P[Sar][NMeV] / II: T[dV]P[Sar][NMeV]; ester I:1-I:C, II:1-II:C; linker I:N-II:N via Actinocin(9to1))",passage of the blood-brain barrier,[10]; in vivo,does not pass
"O=C(O)CCCc1ccc(N(CCCl)CCCl)cc1 [Chlorambucil, 4-[bis(2-chlorethyl)amino] benzenebutanoic acid]",oral absorption,[10]; in vivo,rapidly and completely absorbed
"O.O=P1(N(CCCl)CCCl)NCCCO1 (stereo not shown) [Cyclophosphamide, 2H-1,3,2-Oxazaphosphorin-2-amine, N,N-bis(2-chloroethyl)tetrahydro-, 2-oxide, monohydrate]",stability in the gastrointestinal tract,[10]; in vivo,stable
"COc1cccc2c1C(=O)c1c(O)c3c(c(O)c1C2=O)C[C@@](O)(C(C)=O)C[C@@H]3O[C@H]1C[C@H](N)[C@H](O)[C@H](C)O1 [Daunorubicin, 5,12-Naphthacenedione, (8S-cis)-8-acetyl-10-[(3-amino-2,3,6-trideoxy-a-L-lyxo-hexanopyranosyl)oxy]-7,8,9,10-tetrahydro-6,8,11-trihydroxy-10-methoxy-, hydrochloride]",oral absorption,[10]; in vivo,poor
"COc1cccc2c1C(=O)c1c(O)c3c(c(O)c1C2=O)C[C@@](O)(C(=O)CO)C[C@@H]3O[C@H]1C[C@H](N)[C@H](O)[C@H](C)O1 [Doxorubicin, 5,12-Naphthacenedione, (8s-cis)-10-[(3-amino-2,3,6-trideoxy-a-L-lyxo-hexopyranosyl)oxy]-7,8,9,10-tetrahydro-6,8,11-trihydroxy-8-(hydroxyacetyl)-1-methoxy-hydrochloride]",oral absorption,[10]; in vivo,absorbed poorly
same,secreted into the bile,[10]; in vivo,Forty to 50
"O=NN(CCCl)C(=O)NC1CCCCC1 [Lomustine, 1-(2-chloro-ethyl)-3-cyclohexyl-1 nitrosourea]",serum half-life of the metabolites,[10]; in vivo,16 to 48 h
same,radioactivity excreted as degradation products within 24 hours,"[10]; oral, 30 mg/m^2 to 100 mg/m^2, radioactive drug",about half
"N[C@@H](Cc1ccc(N(CCCl)CCCl)cc1)C(=O)O [Melphalan, 4-[bis(2-chloroethyl)amino]-L-phenylalanine]",patients showing a favorable response,[11],one third to one half
Cc1c(C)c2c(c(C)c1OC(=O)CCC(=O)O)CC[C@@](C)(CCC[C@H](C)CCC[C@H](C)CCCC(C)C)O2 [Vitamin E succinate],"inhibition of cell proliferation, compounds compared (FIG. 7)",[3]; single treatment,somewhat less effective than troglitazone
CC1=C(/C=C/C(C)=C/C=C/C(C)=C/C(=O)O)C(C)(C)CCC1 [all trans retinoic acids],growth inhibitory activity (FIGS. 13-15),[9],little on no growth inhibitory activity
N.N.[Cl][Pt][Cl] [cis-platin],oral absorption,[10]; in vivo,not absorbed orally
same,inhibition of cell proliferation,[12],55%
CO[C@@]12[C@H](COC(N)=O)C3=C(C(=O)C(C)=C(N)C3=O)N1C[C@@H]1N[C@@H]12 [mitomycin],dose recovered/excreted in the urine,[13],Approximately 10%
CCc1ccc(CCOc2ccc(CC3SC(=O)NC3=O)cc2)nc1 (stereo not shown) [pioglitazone],inhibition at 10 µM,[2],60%
same,inhibition at 10 µM,[7],36%
same,inhibition at 10 µM,[8],60 to 70%
CN(CCOc1ccc(CC2SC(=O)NC2=O)cc1)c1ccccn1 (stereo not shown) [rosiglitazone],inhibition at 10 µM,[2],60%
same,inhibition at 10 µM,[7],4%
same,inhibition at 10 µM,[8],60 to 70%
O=C(O)CCC(=O)O [succinic acid],effect upon cell proliferation,[3]; 100 μM,no effect
CC(=O)O[C@H]1C(=O)[C@@]2(C)[C@H]([C@H](OC(=O)c3ccccc3)[C@]3(O)C[C@H](OC(=O)[C@H](O)[C@@H](NC(=O)c4ccccc4)c4ccccc4)C(C)=C1C3(C)C)[C@]1(OC(C)=O)CO[C@@H]1C[C@@H]2O [taxol],inhibition at 0.001 µg/mL,"[12]; Homo sapiens, read-out: inhibition of cell proliferation",28%
CC[C@]1(O)C[C@@H]2CN(CCc3c([nH]c4ccccc34)[C@@](C(=O)OC)(c3cc4c(cc3OC)N(C)[C@H]3[C@@](O)(C(=O)OC)[C@H](OC(C)=O)[C@]5(CC)C=CCN6CC[C@]43[C@@H]65)C2)C1 [vinblastine],oral absorption,[10]; in vivo,Unpredictable absorption
CC[C@]1(O)C[C@H]2CN(CCc3c([nH]c4ccccc34)[C@@](C(=O)OC)(c3cc4c(cc3OC)N(C=O)[C@H]3[C@@](O)(C(=O)OC)[C@H](OC(C)=O)[C@]5(CC)C=CCN6CC[C@]43[C@@H]65)C2)C1 [vincristine],oral absorption,[10]; in vivo,Unpredictable absorption
vitamin E,cell killing (microscopic examination and LDH levels in the media),[6]; 100 μM,cells are being killed
same,IC50,[14],3000 µM
same,IC50,[15],750 µM
